Assay results published in patent publication US20010041676A1, “Glycosides and orthoester glycosides of glucocorticoids and uses thereof” (priority 2000, published 2001).
Like-named read-outs stand apart in the source and are kept apart here.

Assays:
in vivo = details: rat, serum, 20 mg
Experimental: (§1) 1 ml of rat serum was introduced into Varian-abselut (3 ml) cartridge (Part number SP12103100; analytical sample preparation and solid phase extraction use cartridge). Suction was applied and the cartridge was washed with 3 ml of water followed by 2 ml of water. The cartridges were dried under suction for 5 minutes and a jet stream of argon was blown to dry the trace amounts of water. The cartridge was washed once with 3 ml of hexane and the steroidal portion was eluted with 5 ml of methanol. The methanol portion was dried under nitrogen. The dried extract, which contains prednisolone or the glucoside, was constituted with 300 μl of ethyl acetate-methanol mixture (290 μl of ethyl acetate and 10 μl of methanol). 100 μl injections were made using manual injections in the HPLC instrument.
(§2) Hewlett Packard-Agilent 1100 series instrument with UV detector G1315A and a manual injector with a 100 μL loop were used in the assay.
(§3) The solvents used in the elution were a mixture of methanol (2 parts), ethyl acetate (42 parts) and hexane (56 parts). The mixture was run at a flow rate of 1 ml per minute.
(§4) The serum prednisolone and prednisolone glucoside levels were assessed from the animals dosed with either 20 mg of prednisolone or 29 mg of prednisolone glucoside (20 mg equivalent). The animals were sacrificed after 30 minutes and 60 minutes.
(§5) The serum prednisolone levels were calculated based upon the HPLC analyses of prednisolone and prednisolone glucoside. These values are calculated based upon the mAU and area values calculated against the standards.

[1] = rat serum; for Serum prednisolone-glycoside: prednisolone-glucoside group (29 mg); for Serum Prednisolone: prednisolone-glucoside group (29 mg, 20 mg equivalent)
Experimental: as §1, §2, §3, §4, §5

[2] = pH 1.0, 20 mg/ml, room temperature, up to 72 hours
Experimental: The acid stability of prednisolone glucoside was qualitatively assessed by thin layer chromatography (TLC).
Prednisolone glucoside was suspended in pH 1.0 (freshly prepared from 10 M HCl solution) at a concentration of 20 mg/ml and stirred as a turbid solution at room temperature for 72 hours. At 24 and 48 hours, 100 μl aliquots were removed and diluted with about 200 μl of methanol to make a homogeneous solution. Approximately 50 μl was applied to a TLC plate (Sigma-Aldrich #Z 29298-2, made by Merck—silica TLC plates) with several repeated small applications. As controls, standard applications of 10 μg of fresh prednisolone glucoside, dissolved in 100 μl of methanol, and about 10 μg of prednisolone, in 50 μl of methanol, were applied at separate spots. Several repeated small applications were used to minimize the size of applied spot.
The TLC plates were initially eluted with ethyl acetate and then illuminated with the Aldrich's hand held model UV source (short UV light source used, Spectroline #1281657). The TLC plates were then dried, reeluted with methanol and then illuminated again with the UV source.

SMILES	concentration at 30 min (in vivo)	concentration at 60 min (in vivo)	Serum prednisolone-glycoside ([1]; 30 mins)	Serum prednisolone-glycoside ([1]; 60 mins)	Serum Prednisolone ([1]; 30 mins)	Serum Prednisolone ([1]; 60 mins)	Acid stability (qualitative, TLC) [2]
C[C@]12C=CC(=O)C=C1CC[C@@H]1[C@@H]2[C@@H](O)C[C@@]2(C)[C@H]1CC[C@]2(O)C(=O)CO [Prednisolone, prednisolone]	350 ng/mL	156 ng/mL					
C[C@]12C=CC(=O)C=C1CC[C@@H]1[C@@H]2[C@@H](O)C[C@@]2(C)[C@H]1CC[C@]2(O)C(=O)CO[C@@H]1O[C@H](CO)[C@@H](O)[C@H](O)[C@H]1O [Prednisolone-glucoside, 1,4-pregnadiene-11β-17α-diol-21-O-1′-β′-glucopyranosyl-3,20-dione]			639 ng/mL	0 ng/mL	861 ng/mL	349.5 ng/mL	stable
